Measured values reported in patent publication US8314092B2, “Substituted [(5H-pyrrolo[2,1-c][1,4]benzodiazepin-11-yl)piperazin-1-yl]-2,2-dimethylpropanoic acid compounds as dual activity H1 inverse agonists/5-HT2A antagonists” (Eli Lilly and Company, priority 2011, dated 2012).
Where a name gives a salt, the structure may show the parent alone.

Assays:
[1] = tested on: native GABAA receptors; test: GABAA antagonism using native receptors in primary neuronal cultures (FLIPR calcium flux); format: cell-based, rat; details: against 10 μM GABA
Method: Activity of compounds on native GABAA receptors is evaluated by monitoring calcium fluxes using a 96 well format FLIPR® system (Fluorometric Imaging Plate Reader (FLIPR®, Molecular Devices). Briefly, cortical embryonic neurons are dissociated from E18 rat embryos and plated at optimum density into black-walled, transparent bottom poly-D-lysine coated 96-well FLIPR® plates. After loading the cells with a calcium sensitive dye (Fluo-4-AM, Molecular Devices), the cells are bathed in a solution containing low chloride (chloride replaced by gluconate). Under these conditions activation of GABAA receptors causes an efflux of chloride ions (in the direction of the chemical gradient), which results in membrane depolarization and consequently activation of voltage gated calcium channels (VGCCs). Calcium influx through VGCCs is recorded and analysed offline using the FLIPR® system. For a pharmacological validation of the assay, concentration response curves (CRC) are recorded for the standard agonist (GABA) and standard antagonist (Gabazine). […]
The antagonist effects of compounds are quantified using 10-point dose response curves by comparing the peak fluorescent responses to the agonist GABA in the presence and absence of compound. […] Antagonist effects are calculated as a percent of the assay window. […]

[2] = biological target: 5-HT7 (Homo sapiens, UniProt P34969); test: 5-HT7 binding
Description: Further, the compounds of the invention may be tested in binding assays and functional activity assays by well known methods for other physiologically important receptors such as, but not limited to, the hERG channel, other serotonin receptors (specifically 5-HT1A, 5-HT1B, 5-HT1D, 5-HT1E, 5-HT1F receptors, lack of agonist activity at 5-HT2B receptors, 5-HT2C, 5-HT4, 5-HTS, 5-HT6, and 5-HT7 receptors), muscarinic receptors, dopaminergic receptors (specifically D1, D2, and D3), GABAA receptors, adrenergic receptors and monoamine transporters. Certain exemplified compounds are tested at these receptors and are shown to lack significant activity.

Chain of 5-HT7 (P34969 whole entry, species assumed): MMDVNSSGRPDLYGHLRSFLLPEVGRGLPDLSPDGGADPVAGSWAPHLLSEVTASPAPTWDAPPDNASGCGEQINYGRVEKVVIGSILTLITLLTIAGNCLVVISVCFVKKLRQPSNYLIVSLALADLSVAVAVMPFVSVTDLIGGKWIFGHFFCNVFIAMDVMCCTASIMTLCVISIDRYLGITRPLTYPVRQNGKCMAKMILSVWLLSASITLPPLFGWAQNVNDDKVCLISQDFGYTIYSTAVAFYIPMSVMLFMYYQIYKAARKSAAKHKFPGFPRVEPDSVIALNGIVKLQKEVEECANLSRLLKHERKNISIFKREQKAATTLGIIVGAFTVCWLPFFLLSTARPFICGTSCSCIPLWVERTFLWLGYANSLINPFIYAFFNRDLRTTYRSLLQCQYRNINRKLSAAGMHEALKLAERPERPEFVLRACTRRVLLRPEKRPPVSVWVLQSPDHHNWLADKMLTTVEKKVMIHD

## Cc1cc2n(c1)Cc1cc(Cl)ccc1N=C2N1CCN(CC(C)(C)C(=O)O)CC1 [Example 13, 3-[4-(7-Chloro-2-methyl-5H-pyrrolo[2,1-c][1,4]benzodiazepin-11-yl)piperazin-1-yl]-2,2-dimethylpropanoic acid dihydrochloride]
[1]
  IC50: > 50 µM
[2]
  Ki: > 3.97 µM
